Here are results for nine molecules from ChEMBL document CHEMBL2074285, “Characterization of the drug resistance and transport properties of multidrug resistance protein 6 (MRP6, ABCC6)” (Cancer Res, 2002).

Numbered stars: 1 amine (or outer) side, 2 acyl side, 3 side chain; on linkers, the order of the positions; unused ones are H or OH. Bridge positions count the residues as written; N and C are the ends. Square brackets hold non-standard residues; d marks the D form. Peptide text beside a SMILES is read from it. I, II: the chains in the order shown. Actinocin(9to1) = Cc1c2oc3c(C)ccc(C(=O)[*:1])c3nc-2c(C(=O)[*:2])c(N)c1=O; NMeV = CN[C@H](C(=O)O)C(C)C; Sar = CNCC(=O)O

One series deals with T1, ATP-binding cassette sub-family C member 6 (Homo sapiens, UniProt O95255). As to the kind of experiment: TP_TRANSPORTER: drug resistance in MRP6-expressing CHO cells. It counts as functional, cell-based. The settings on record: hamster.
T1 sequence (O95255 whole entry): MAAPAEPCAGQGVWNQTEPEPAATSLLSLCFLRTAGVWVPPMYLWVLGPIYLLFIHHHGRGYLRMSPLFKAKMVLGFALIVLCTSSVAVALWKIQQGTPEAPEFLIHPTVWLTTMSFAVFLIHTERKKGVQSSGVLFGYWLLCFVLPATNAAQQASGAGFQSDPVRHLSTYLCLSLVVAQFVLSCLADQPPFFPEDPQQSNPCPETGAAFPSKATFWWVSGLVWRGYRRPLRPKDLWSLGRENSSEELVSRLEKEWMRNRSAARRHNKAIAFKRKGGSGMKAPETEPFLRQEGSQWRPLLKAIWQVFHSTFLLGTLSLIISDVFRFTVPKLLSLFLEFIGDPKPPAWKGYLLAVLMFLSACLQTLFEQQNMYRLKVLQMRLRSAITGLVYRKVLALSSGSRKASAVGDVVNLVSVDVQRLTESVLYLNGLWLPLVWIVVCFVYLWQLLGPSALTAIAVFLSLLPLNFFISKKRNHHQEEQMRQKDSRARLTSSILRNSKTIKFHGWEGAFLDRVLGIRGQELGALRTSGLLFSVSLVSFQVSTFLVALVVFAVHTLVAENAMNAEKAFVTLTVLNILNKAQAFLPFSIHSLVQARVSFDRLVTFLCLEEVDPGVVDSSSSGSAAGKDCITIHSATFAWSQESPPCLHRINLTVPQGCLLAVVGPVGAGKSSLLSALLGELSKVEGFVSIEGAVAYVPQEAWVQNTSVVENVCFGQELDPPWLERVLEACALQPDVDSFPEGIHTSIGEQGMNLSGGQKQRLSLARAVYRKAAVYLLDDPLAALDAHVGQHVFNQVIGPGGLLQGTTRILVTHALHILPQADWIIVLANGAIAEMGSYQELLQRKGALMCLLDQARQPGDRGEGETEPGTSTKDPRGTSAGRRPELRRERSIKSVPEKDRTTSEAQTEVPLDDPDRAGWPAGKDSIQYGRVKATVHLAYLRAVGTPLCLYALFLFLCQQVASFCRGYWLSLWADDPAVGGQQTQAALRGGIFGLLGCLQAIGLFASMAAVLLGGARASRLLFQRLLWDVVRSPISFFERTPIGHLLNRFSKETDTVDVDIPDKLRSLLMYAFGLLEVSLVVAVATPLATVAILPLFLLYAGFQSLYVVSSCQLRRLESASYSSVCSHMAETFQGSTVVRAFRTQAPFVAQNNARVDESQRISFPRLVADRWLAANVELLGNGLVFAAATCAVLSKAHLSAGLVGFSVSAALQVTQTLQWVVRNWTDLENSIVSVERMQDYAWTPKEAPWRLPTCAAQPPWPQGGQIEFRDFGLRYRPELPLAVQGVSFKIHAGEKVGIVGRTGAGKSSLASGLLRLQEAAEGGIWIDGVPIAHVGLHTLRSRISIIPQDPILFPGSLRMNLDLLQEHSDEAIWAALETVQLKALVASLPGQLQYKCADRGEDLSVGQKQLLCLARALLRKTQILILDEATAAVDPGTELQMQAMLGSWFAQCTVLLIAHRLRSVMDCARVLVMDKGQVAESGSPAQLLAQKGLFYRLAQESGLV
With `Cc1c2oc3c(C)ccc(C(=O)N[C@@H]4C(=O)N[C@H](C(C)C)C(=O)N5CCC[C@H]5C(=O)N(C)CC(=O)N(C)[C@@H](C(C)C)C(=O)O[C@@H]4C)c3nc-2c(C(=O)N[C@@H]2C(=O)N[C@H](C(C)C)C(=O)N3CCC[C@H]3C(=O)N(C)CC(=O)N(C)[C@@H](C(C)C)C(=O)O[C@@H]2C)c(N)c1=O` [DACTINOMYCIN] (I: T[dV]P[Sar][NMeV] / II: T[dV]P[Sar][NMeV]; ester I:1-I:C, II:1-II:C; linker I:N-II:N via Actinocin(9to1)), the Activity entry was “substrate []”. On the same count and under the same terms, the result for `COc1cccc2c1C(=O)c1c(O)c3c(c(O)c1C2=O)C[C@@](O)(C(=O)CO)C[C@@H]3O[C@H]1C[C@H](N)[C@H](O)[C@H](C)O1` [DOXORUBICIN] reads “substrate []”; that for `COc1cccc2c1C(=O)c1c(O)c3c(c(O)c1C2=O)C[C@@](O)(C(C)=O)C[C@@H]3O[C@H]1C[C@H](N)[C@H](O)[C@H](C)O1` [DAUNORUBICIN], “substrate []”.

CISPLATIN: the Activity entry was “substrate []”. On the same count and under the same terms, the result for `COc1cc([C@@H]2c3cc4c(cc3[C@@H](O[C@@H]3O[C@@H]5CO[C@@H](C)O[C@H]5[C@H](O)[C@H]3O)[C@H]3COC(=O)[C@H]23)OCO4)cc(OC)c1O` [ETOPOSIDE] reads “substrate []”.

Consider `COc1cc([C@@H]2c3cc4c(cc3[C@@H](O[C@@H]3O[C@@H]5CO[C@@H](c6cccs6)O[C@H]5[C@H](O)[C@H]3O)[C@H]3COC(=O)[C@H]23)OCO4)cc(OC)c1O` [TENIPOSIDE], for which the Activity result was “substrate []”.

The target of a further series is T1, ATP-binding cassette sub-family C member 6. As to the kind of experiment: TP_TRANSPORTER: uptake in membrane vesicle from MRP6-expressing CHO cells. It counts as functional, cell membranes. The settings on record: hamster.
On to `CC(C)C[C@@H]1NC(=O)[C@@H](C(C)C)NC(=O)[C@@H]2CCCN2C(=O)[C@@H](CC(=O)O)NC(=O)[C@@H](Cc2c[nH]c3ccccc23)NC1=O` [BQ-123] (HELM PEPTIDE1{L.[dW].[dD].P.[dV]}$PEPTIDE1,PEPTIDE1,1:R1-5:R2$$$V2.0), for which the Activity entry was “substrate [+]”. Still for that read-out and setting: under `CCCCC/C=C\C\C=C/C=C/C=C/[C@@H](SC[C@@H](NC(=O)CC[C@H](N)C(=O)O)C(=O)NCC(=O)O)[C@@H](O)CCCC(=O)O` [LEUKOTRIEN C4] stands “substrate [+]”; under `N[C@@H](CCC(=O)N[C@H](CSc1ccc([N+](=O)[O-])cc1[N+](=O)[O-])C(=O)NCC(=O)O)C(=O)O`, “substrate [+]”.
